The text below walks through data of article PMC2009863, “Pharmacokinetic considerations in testing hypoxic cell radiosensitizers in mouse tumours” (British Journal of Cancer, 1979).

Where “and” joins values, the source holds several entries; their conditions need not be identical. Equal entries are not always repeated. Where two headings read alike, the source gives them in different places.

Series [1] can be described thus: Plasma and tumour levels of total 2-nitroimidazoles, UV spectrophotometric assay at 318 nm, EMT6 tumour-bearing mice, normal or bilateral kidney ligation. Conditions: for Plasma concn. / Tumour concn.: Table I, 5 mmol/kg i.p.; for Plasma concn. / Tumour concn. / Plasma concentration / Tumour concentration: individual mice; for Plasma concentration, Mean / Tumour concentration, Mean / Plasma concentration / Tumour concentration: Table II, 5 mmol/kg. From the text:
(§1) Several groups are now pursuing such a goal (Adams, 1977; Brown et al., 1978; Wardman, 1977). […] Specifically the two ques- tions were: (a) How much does the plasma half-life affect the peak plasma level? (b) How much does the plasma half-life affect the tumour/plasma ratio of drug concentrations? MATERIALS AND METHODS A description of the procedures for implanta- tion of tumours, and irradiation and assay of the viability of the tumour cells has been published previously (Brown, 1975). Brieflv, the EMT6/St/lu tumour was transplanted into 3-month-old, syngeneic BALB/c female mice, weighing 20-25 g, and irradiated at a diameter of 6-7 mm. Immediately after irradiation the tumours were removed and minced. The only modification was that the single-cell suspensions were prepared by a 30 min disaggregation using an enzyme "'cock- tail" of 0-05% pronase, 0.02% DNAase and 21 0 02% collagenase (Brown et al., in prepara- tion). Cell viability was assayed by plating appropriate dilutions of the tumour cells into Waymouth's medium containing 15% foetal calf serum in polystyrene Petri dishes, and counting colonies 13 days later. […] Bilateral kidney ligation was performed on anaesthetized mice by exteriorizing the kidneys through a 1 cm incision in the skin and abdominal wall and tying a ligature around the renal artery and vein at the renal pelvis. The abdominal incision, which was adjoining and parallel to the line of attach- ment of the abdominal wall with the dorsal muscles, was then closed tightly with 4 or 5 stitches, and the skin incision closed with metal clips. The sham operation was identical in all respects except for ligation of the renal artery and vein. […] Plasma (or whole blood) and tumour levels of 2-nitroimidazoles were determined in different ways in the two laboratories rep- resented. In the first method, represented in Tables I and II and Fig. 1, tumour and plasma levels were determined on killing of individual mice, and were measured spectrophotomet- rically using UV absorption at 318 nm. This measures the total concentration of all 2-nitroimidazoles in the sample. The pro- cedure used was a modification of that described by Chapman et al. (1974). To measure plasma levels, 0 4 ml of plasma (collected from heparinized whole blood by cardiac puncture at the time of killing) was added to 2-6 nil absolute ethanol. The mixture was vortexed for 1 min, allowed to stand for 10 min and then centrifuged for 5 min at high speed (1000 g). Tumour levels were determined by preparing a 20% (w/v) homogenate of tumour in distilled water, and adding a 0 4 ml aliquot of homogenate to 2-6 ml absolute ethanol as described above. […] At appropriate times after MIS administration, serial blood samples were taken from the tail of the same mouse. Duplicate 5 /A samples were collected in Microcap pipettes (Drummond Scientific Company), mixed with 45 µl water and stored at -20?C. Finally (usually at 10-12-5 h) the mice were bled by cardiac puncture and the undiluted heparinized whole blood was stored at -20?C.

For series [2] the following is noted: cited from earlier work; for tumour concentration as % of corresponding plasma concentration: clinical studies, HPLC, after MIS administration, ref Wiltshire et al.
A short description of series [3]: Whole blood MIS and Ro-05-9963 by HPLC after MIS in control, sham-operated and kidney-ligated mice. Conditions: for half-life: mouse, in vivo, 5 mmol/kg, plasma half-life.
Excerpt: as §1

Another series has as its system V-79 cells. Conditions: cited from earlier work.
Details of series [4]: method as in Adams et al., 1976; Brown et al., 1978. Conditions: ref Adams et al., 1976; Brown et al., 1978; cited from earlier work.
Series [5] is described as follows: Acute toxicity LD50/2d of MIS and Ro-05-9963. Conditions: mouse, in vivo. From the text: Several groups are now pursuing such a goal (Adams, 1977; Brown et al., 1978; Wardman, 1977). […] Specifically the two ques- tions were: (a) How much does the plasma half-life affect the peak plasma level? (b) How much does the plasma half-life affect the tumour/plasma ratio of drug concentrations? MATERIALS AND METHODS A description of the procedures for implanta- tion of tumours, and irradiation and assay of the viability of the tumour cells has been published previously (Brown, 1975). Brieflv, the EMT6/St/lu tumour was transplanted into 3-month-old, syngeneic BALB/c female mice, weighing 20-25 g, and irradiated at a diameter of 6-7 mm. Immediately after irradiation the tumours were removed and minced. […] Plasma (or whole blood) and tumour levels of 2-nitroimidazoles were determined in different ways in the two laboratories rep- resented. In the first method, represented in Tables I and II and Fig. 1, tumour and plasma levels were determined on killing of individual mice, and were measured spectrophotomet- rically using UV absorption at 318 nm. […] Tumour levels were determined by preparing a 20% (w/v) homogenate of tumour in distilled water, and adding a 0 4 ml aliquot of homogenate to 2-6 ml absolute ethanol as described above. […]

For series [6] the following is noted: cited from earlier work.
On series [7], the source says: Several groups are now pursuing such a goal (Adams, 1977; Brown et al., 1978; Wardman, 1977). […] Specifically the two ques- tions were: (a) How much does the plasma half-life affect the peak plasma level? (b) How much does the plasma half-life affect the tumour/plasma ratio of drug concentrations? MATERIALS AND METHODS A description of the procedures for implanta- tion of tumours, and irradiation and assay of the viability of the tumour cells has been published previously (Brown, 1975). Brieflv, the EMT6/St/lu tumour was transplanted into 3-month-old, syngeneic BALB/c female mice, weighing 20-25 g, and irradiated at a diameter of 6-7 mm. Immediately after irradiation the tumours were removed and minced. The only modification was that the single-cell suspensions were prepared by a 30 min disaggregation using an enzyme "'cock- tail" of 0-05% pronase, 0.02% DNAase and 21 0 02% collagenase (Brown et al., in prepara- tion). Cell viability was assayed by plating appropriate dilutions of the tumour cells into Waymouth's medium containing 15% foetal calf serum in polystyrene Petri dishes, and counting colonies 13 days later. […] Bilateral kidney ligation was performed on anaesthetized mice by exteriorizing the kidneys through a 1 cm incision in the skin and abdominal wall and tying a ligature around the renal artery and vein at the renal pelvis. […] Plasma (or whole blood) and tumour levels of 2-nitroimidazoles were determined in different ways in the two laboratories rep- resented. In the first method, represented in Tables I and II and Fig. 1, tumour and plasma levels were determined on killing of individual mice, and were measured spectrophotomet- rically using UV absorption at 318 nm. […] Tumour levels were determined by preparing a 20% (w/v) homogenate of tumour in distilled water, and adding a 0 4 ml aliquot of homogenate to 2-6 ml absolute ethanol as described above. […]

[8] abbreviates: BKL Yes, 38 min after injection.

Regarding `O=[N+]([O-])c1nccn1CC(O)CO` (stereo not drawn) [Ro-05-9963, 1-(2-nitroimidazol-1-yl)-2,3-pro-pandiol], in series [1] (EMT6 tumour), the “tumour levels lower than plasma concentration” value is reported as 30-40%. This compound also showed a plasma half-life in series [1] (Fig. 1, normal BALB/c mice, equal peak plasma levels: MIS 5 mmol/kg, Ro-05-9963 10 mmol/kg i.p.) of 0.55 h. For the same compound, the Plasma concn. in series [1] (30 min after inj.) is 2 to 8 mM and 2 to 4 mM and 2 to 6 mM; in series [1] (37.5 min after inj.) it was 2-4 mM (2×) and 2-5 mM and 0-88 mM; in series [1] (45 min after inj.) it was 1 to 5 mM and 0 to 38 mM and 1 to 2 mM. The Tumour concn. in series [1] (30 min after inj.) was 0-77 mM and 1.5 mM and 1-1 mM; in series [1] (37.5 min after inj.) it was 2-4 mM and 1-7 mM (2×); in series [1] (45 min after inj.) it was 0 to 74 mM and 0 to 76 mM and 0 to 25 mM. Also, the “Plasma concentration, Mean” value in series [1] (BKL No, 38 min after injection) was in the range of 1000 to 4000 µM; in series [1] (BKL Yes, 6 h after injection) it was 4000 to 8000 µM. The “Tumour concentration, Mean” value in series [1] (BKL No, 38 min after injection) was 1-1 mM; in series [1] (BKL Yes, 6 h after injection), 2 to 8 mM. Further, the Plasma concentration in series [1] (BKL No, 38 min after injection) was 0 to 42 mM and 0 to 51 mM and 1 to 93 mM and 2 to 16 mM and 2 to 36 mM and 1 to 27 mM; in series [1] (setting [8]) it was 4.7 mM (2×) and 5.4 mM and 4-9 mM; in series [1] (BKL Yes, 6 h after injection), 5.9 mM and 4 to 6 mM and 4 to 7 mM. The Tumour concentration is 0 to 24 mM and 0 to 25 mM and 2 to 35 mM and 1 to 30 mM and 1 to 58 mM and 0 to 90 mM in series [1] (BKL No, 38 min after injection); 4.3 mM and 2 to 4 mM and 2 to 8 mM and 1 to 6 mM in series [1] (setting [8]); 2 to 3 mM and 2 to 9 mM and 3 to 7 mM in series [1] (BKL Yes, 6 h after injection). The “plasma and tumour concentrations less than those of MIS, factor” value in series [1] (equimolar injected doses, normal mice) was at least 2. Besides, in series [2] (1978, Workman et al., 1978b), the “tumour concentration as % of corresponding plasma concentration” value was 50-70%. Also, the “proportion of Ro-05-9963 to total non-conjugated 2-nitroimidazoles” value in series [3] (38 min after MIS injection, control and nephrectomized mice) is listed as 5%; in series [3] (6.5 h after MIS injection, nephrectomized mice) it was 22%; in series [3] (6.5 h after MIS injection, normal mice) it was 24%. The “radiosensitizing effectiveness compared with MIS” value in the series with V-79 cells (V-79 cells in vitro, ref Adams et al. (1976)) is recorded as “slightly less effective”; in the series on V-79 cells (in vitro, ref Flockhart et al. (1968b)), “slightly more so”. Besides, the “lipophilicity compared with MIS” value in series [4] was “considerably less lipophilic”.
In the case of `COCC(O)Cn1ccnc1[N+](=O)[O-]` (stereo not drawn) [MIS, 1-(2-nitroimidazol-1-yl)-3-methoxypropan-2-ol], the “tumour concentration as % of corresponding plasma concentration” value in series [2] (1978, Workman et al., 1978b) is 50-70%. The “tumour concentration as % of plasma levels” value in series [2] (human tumours, ref Gray et al., 1976, Dische et al., 1977, Urtasun et al.) is given as 42-107%. The half-life in man in series [2] (plasma, ref Foster et al., 1975, Dische et al., 1977, Wiltshire et al., 1978, Workman et al., 1978b) was around 12 h. The half-life in series [3] (BALB/c, bilateral kidney ligation before injection) was 10 to 11 h; in series [3] (BALB/c, normal mice), around 2 h; in series [3] (ip, bilateral kidney ligation before injection), 10 h. Further, in series [3] (normal and sham-operated mice after MIS), the “glucuronide conjugates of MIS and Ro-05-9963 in plasma” value is recorded as “not found”. Besides, in series [5], the LD50 at 2 d worked out at 1830 mg/kg. For the same compound, the “uptake of (2-14C) MIS as % of plasma concentration” value in series [6] (MT mouse tumour and some normal mouse tissues, particularly at less than 6 h, ref Flockhart et al. (1978c)) was “less than 100%”. Further, the “tumour concentration as % of that in blood” value in series [6] (different mouse tumours, ref McNally et al. (1978)) is 18-72%. For the same compound, the “rectal temperature below uninjected mice” value in series [7] (9 h after MIS injection, controls) is at most 3 °C. Further, in series [7] (9 h after MIS injection, kidney-ligated mice), the “rectal temperature below the uninjected level” value was determined as 7 °C. For the same compound, the rectal temperature drop in series [7] (first 5 h after MIS injection, all 3 groups) amounted to 5.0 °C.

In general, half-life refers to the time in which the quantity being followed falls by half. Read a high half-life as slow decline. Usually LD50 stands for the dose at which mortality reaches 50%. A lower LD50 goes with greater toxicity.
